Literature values, collected in patent US20230089090A1, “Composition for Treating Viral Infections” (priority 2020, published 2023).

How the values were obtained:
[1] = both flavonols administered simultaneously
human furin = human furin (Homo sapiens, UniProt P09958)
[2] = system: HIV-1 infected lymphocytes; conditions: similar to DRB and cell control
[3] = system: androgen receptor (AR)-positive C4-2 cells; conditions: single compounds, read-out: half minimal inhibitory concentration (IC50)
[4] = in vivo, 10 mg/kg
[5] = significant amount excreted over a 24-h period

human furin, sequence (P09958 108-794): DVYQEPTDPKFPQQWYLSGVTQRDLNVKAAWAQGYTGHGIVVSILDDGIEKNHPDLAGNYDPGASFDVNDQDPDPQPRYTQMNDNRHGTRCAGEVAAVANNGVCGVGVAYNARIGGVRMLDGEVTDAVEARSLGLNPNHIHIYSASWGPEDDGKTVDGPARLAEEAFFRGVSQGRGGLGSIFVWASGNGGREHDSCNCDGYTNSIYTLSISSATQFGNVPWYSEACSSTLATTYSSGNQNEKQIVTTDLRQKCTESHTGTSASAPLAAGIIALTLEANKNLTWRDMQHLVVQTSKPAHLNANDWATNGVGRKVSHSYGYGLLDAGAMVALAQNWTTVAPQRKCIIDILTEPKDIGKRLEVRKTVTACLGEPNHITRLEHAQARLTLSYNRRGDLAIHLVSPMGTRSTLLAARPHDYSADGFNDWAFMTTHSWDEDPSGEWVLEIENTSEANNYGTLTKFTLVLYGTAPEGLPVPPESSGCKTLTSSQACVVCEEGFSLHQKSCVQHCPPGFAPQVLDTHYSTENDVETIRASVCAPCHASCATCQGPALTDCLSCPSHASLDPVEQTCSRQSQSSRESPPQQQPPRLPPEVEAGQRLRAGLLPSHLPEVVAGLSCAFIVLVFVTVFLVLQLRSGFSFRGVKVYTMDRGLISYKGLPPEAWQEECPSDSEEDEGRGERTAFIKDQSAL

## O=c1c(O)c(-c2ccc(O)cc2)oc2cc(O)cc(O)c12 [kaempferol, 3,4′,5,7-tetrahydroxyflavone]
[1]
  effect on efflux of quercetin: blocked the efflux of quercetin

## O=c1cc(-c2ccc(O)c(O)c2)oc2cc(O)cc(O)c12 [luteolin, 2-(3,4-dihydroxyphenyl)-5,7-dihydroxy-4-chromenone]
Human furin
  manner of inhibition of the enzyme activity: uncompetitive
Human furin; uncompetitive inhibition
  Ki: 58.6 µM
Dengue virus; through inhibition of the proprotein convertase furin
  dengue virus replication: restricts dengue virus replication
Dengue virus; virus particles from luteolin-treated cells
  prM cleavage in virus particles: not cleaved efficiently
[2]
  cell aggregation/syncytia: inhibition in cell aggregation/syncytia
[3]
  IC50: 114 µM
[4]
  adverse effects: Major adverse effects had not been observed

## O=c1c(O)c(-c2ccc(O)c(O)c2)oc2cc(O)cc(O)c12 [quercetin, 2-(3,4-dihydroxyphenyl)-3,5,7-trihydroxy-4H-chromen-4-one]
[5]
  clearance and half-life in the blood: rapid clearance and a short half-life
